# Laboratory results taken from US20110002843A1, “METHOD OF DETECTING MYOCARDIAL DYSFUNCTION IN PATIENTS HAVING A HISTORY OF ASTHMA OR BRONCHOSPASM” (priority 2005, published 2011).
# Test: Pulmonary responses and safety in human subjects with mild, intermittent asthma (single-blind and double-blind parts)
# Type: in vivo
# Details: for FEV1 (L) Mean % Change from Baseline (SD) / FEV1 (L) Mean (SD) / FVC Mean % Change from Baseline (SD) / FVC Mean (SD) / changes from baseline in mean FEV1, FEV1 (% predicted), FEF25%-75%, FVC / subjects with treatment-emergent AEs / FEF25%-75% Mean % Change from Baseline (SD) / FEF25%-75% Mean (SD) / FEV1 (% predicted) Mean % Change from Baseline (SD) / FEV1 (% predicted) Mean (SD): single-blind
# Protocol: Methodology: The study consisted of 2 parts, a Single-Blind Part and a Double-Blind Part. The dose escalating, Single-Blind Part enrolled subjects with mild, intermittent asthma and consisted of 3 sequentially enrolled dosing cohorts with 8 subjects per cohort, such that Dosing Cohorts 1, 2 and 3 received binodenoson target doses of 0.5 μg/kg, 1.0 μg/kg and 1.5 μg/kg, respectively. All 8 subjects in a dosing cohort must have completed dosing at the assigned dose and a medical review of each cohort must have been acceptable before enrollment in the next cohort began. The Double-Blind Part was initiated only if the medical review of all safety data from the Single-Blind Part was acceptable. In the Double Blind Part, subjects with mild, intermittent asthma were randomly assigned in a 2:1 ratio to receive either binodenoson 1.5 μg/kg (n=40 planned) or placebo control (n=20 planned).
# Both study parts were comprised of Screening, Treatment and Follow-Up Visits. The Screening Visit occurred 7 to 14 days before the Treatment Visit and consisted of a physical examination, medical history and application of inclusion and exclusion criteria. Subjects were instructed to measure peak expiratory flow (PEF) and asthma symptoms during a period of at least 7 days prior to the Treatment Visit. Subjects were to continue to meet all Screening eligibility criteria at the Treatment Visit and forced expiratory volume in 1 second (FEV1) was to remain within 80% of predicted for subjects to be eligible for dosing. All subjects enrolled in the Single-Blind Part and subjects randomized to receive binodenoson in the Double-Blind Part received 3 intravenous (IV) injections during the Treatment Visit: (1) placebo; (2) a low, challenge binodenoson dose to detect potential hypersensitivity reactions; and (3) an assigned binodenoson test dose. Subjects randomized to receive placebo in the Double Blind Part received 3 placebo injections. The Follow-Up Visit occurred 2 to 4 days following the Treatment Visit.
# Eligible subjects were males or non-pregnant, nonlactating females ≧18 years of age weighing <350 pounds with a medical history of mild, intermittent asthma (as defined in the “Guidelines for the Diagnosis and Management of Asthma” prepared by the National Institutes of Health [NIH]) within 6 months of Screening.
# Subjects were not eligible for the study if they had resting sitting systolic blood pressure (SBP)<100 or >140 mmHg, diastolic blood pressure (DBP)<60 or >90 mmHg, pulse rate >95 beats per minute (bpm), or a lower limit FEV1 at rest of <80% of the predicted value at Screening.
# Dose and Mode of Administration: A stock solution of binodenoson (25 μg/mL) was administered as a bolus injection over 30 seconds (0.1 μg/kg=0.004 mL/kg of stock solution, 0.5 μg/kg=0.02 mL/kg of stock solution, 1.0 μg/kg=0.04 mL/kg of stock solution and 1.5 μg/kg=0.06 mL/kg of stock solution).
# Duration of Treatment: Each subject received three 30-second bolus IV injections separated by ≧90 minutes in both the Single Blind and Double-Blind Parts of the study.
# Criteria for Evaluation: The primary safety endpoint was clinically significant bronchoconstriction, defined as a ≧20% decrease in FEV1 from the predrug baseline following binodenoson administration. Other safety assessments included need for rescue medication, regular measurements of pulmonary function (FEV1 [% predicted], forced vital capacity [FVC] and forced expiratory flow during the middle half of the FVC [FEF25%-75%]), vital signs, pulse oximetry, physical examination findings, electrocardiogram (ECG) results, clinical laboratory results and adverse events.
# Statistical Methods: All data collected in the study were summarized by treatment (placebo; 0.1 μg/kg binodenoson challenge; or 0.5, 1.0, or 1.5 μg/kg binodenoson) and study Part (Single-Blind or Double-Blind with univariate summaries). Continuous variables were summarized with descriptive statistics (n, mean, median, standard deviation [SD] and minimum and maximum). […]
# [1] = Cohort 3, second injection 0.1 μg/kg iv bolus, 90 minutes
# [2] = third injection 0.5 μg/kg iv bolus, 5 min
# [3] = third injection 0.5 μg/kg iv bolus, 15 min
# [4] = third injection 0.5 μg/kg iv bolus, 45 min
# [5] = third injection 0.5 μg/kg iv bolus, 90 min
# [6] = third injection 1.0 μg/kg iv bolus, 5 min
# [7] = third injection 1.0 μg/kg iv bolus, 15 min
# [8] = third injection 1.0 μg/kg iv bolus, 45 min
# [9] = third injection 1.0 μg/kg iv bolus, 90 min
# [10] = third injection 1.5 μg/kg iv bolus, 5 min
# [11] = third injection 1.5 μg/kg iv bolus, 15 min
# [12] = third injection 1.5 μg/kg iv bolus, 45 min
# [13] = third injection 1.5 μg/kg iv bolus, 90 min
smiles,measurement,setting,value
"Nc1nc(N/N=C/C2CCCCC2)nc2c1ncn2[C@@H]1O[C@H](CO)[C@@H](O)[C@H]1O (stereo in doubt) [Binodenoson, 2-{2-[(Cyclohexyl)methylene]hydrazino}adenosine]",FEV1 (L) Mean % Change from Baseline (SD),[1],0.901 (2.441) %
same,FEV1 (L) Mean (SD),[1],3.343 (0.657) L
same,FVC Mean % Change from Baseline (SD),[1],−0.163 (0.894) %
same,FVC Mean (SD),[1],4.334 (0.850)
same,"changes from baseline in mean FEV1, FEV1 (% predicted), FEF25%-75%, FVC",after binodenoson 0.1 μg/kg injection,No clinically significant changes from baseline
same,subjects with treatment-emergent AEs,binodenoson 0.1 μg/kg,No subjects experienced treatment-emergent AEs
same,subjects with treatment-emergent AEs,third injection 0.5 μg/kg,25%
same,FEF25%-75% Mean % Change from Baseline (SD),[2],−3.549 (6.717) %
same,FEF25%-75% Mean (SD),[2],3.111 (0.915)
same,FEV1 (% predicted) Mean % Change from Baseline (SD),[2],−2.3 (3.4) %
same,FEV1 (% predicted) Mean (SD),[2],92.6 (12.5) % predicted
same,FEV1 (L) Mean % Change from Baseline (SD),[2],−2.327 (3.977) %
same,FEV1 (L) Mean (SD),[2],3.995 (0.820) L
same,FVC Mean % Change from Baseline (SD),[2],−1.162 (2.708) %
same,FVC Mean (SD),[2],5.581 (1.151)
same,FEF25%-75% Mean % Change from Baseline (SD),[3],−1.773 (3.375) %
same,FEF25%-75% Mean (SD),[3],3.169 (0.885)
same,FEV1 (% predicted) Mean % Change from Baseline (SD),[3],−0.9 (2.1) %
same,FEV1 (% predicted) Mean (SD),[3],94.0 (11.9) % predicted
same,FEV1 (L) Mean % Change from Baseline (SD),[3],−0.967 (2.171) %
same,FEV1 (L) Mean (SD),[3],4.049 (0.800) L
same,FVC Mean % Change from Baseline (SD),[3],−0.033 (1.645) %
same,FVC Mean (SD),[3],5.640 (1.130)
same,FEF25%-75% Mean % Change from Baseline (SD),[4],−2.338 (5.471) %
same,FEF25%-75% Mean (SD),[4],3.158 (0.899)
same,FEV1 (% predicted) Mean % Change from Baseline (SD),[4],−1.5 (2.1) %
same,FEV1 (% predicted) Mean (SD),[4],93.4 (11.7) % predicted
same,FEV1 (L) Mean % Change from Baseline (SD),[4],−1.455 (2.494) %
same,FEV1 (L) Mean (SD),[4],4.034 (0.821) L
same,FVC Mean % Change from Baseline (SD),[4],−0.838 (3.371) %
same,FVC Mean (SD),[4],5.591 (1.122)
same,FEF25%-75% Mean % Change from Baseline (SD),[5],−3.732 (9.304) %
same,FEF25%-75% Mean (SD),[5],3.106 (0.892)
same,FEV1 (% predicted) Mean % Change from Baseline (SD),[5],−2.0 (3.4) %
same,FEV1 (% predicted) Mean (SD),[5],92.9 (12.5) % predicted
same,FEV1 (L) Mean % Change from Baseline (SD),[5],−2.365 (3.864) %
same,FEV1 (L) Mean (SD),[5],4.000 (0.840) L
same,FVC Mean % Change from Baseline (SD),[5],−0.963 (3.579) %
same,FVC Mean (SD),[5],5.600 (1.196)
same,subjects with treatment-emergent AEs,third injection 1.0 μg/kg,50%
same,FEF25%-75% Mean % Change from Baseline (SD),[6],2.938 (17.701) %
same,FEF25%-75% Mean (SD),[6],3.571 (1.546)
same,FEV1 (% predicted) Mean % Change from Baseline (SD),[6],−0.1 (5.7) %
same,FEV1 (% predicted) Mean (SD),[6],93.5 (11.5) % predicted
same,FEV1 (L) Mean % Change from Baseline (SD),[6],−0.071 (5.830) %
same,FEV1 (L) Mean (SD),[6],3.889 (0.883) L
same,FVC Mean % Change from Baseline (SD),[6],0.316 (3.947) %
same,FVC Mean (SD),[6],5.106 (1.192)
same,FEF25%-75% Mean % Change from Baseline (SD),[7],1.896 (7.770) %
same,FEF25%-75% Mean (SD),[7],3.534 (1.364)
same,FEV1 (% predicted) Mean % Change from Baseline (SD),[7],0.0 (3.8) %
same,FEV1 (% predicted) Mean (SD),[7],93.6 (13.0) % predicted
same,FEV1 (L) Mean % Change from Baseline (SD),[7],0.113 (3.892) %
same,FEV1 (L) Mean (SD),[7],3.899 (0.884) L
same,FVC Mean % Change from Baseline (SD),[7],−0.138 (3.728) %
same,FVC Mean (SD),[7],5.078 (1.156)
same,FEF25%-75% Mean % Change from Baseline (SD),[8],7.715 (11.942) %
same,FEF25%-75% Mean (SD),[8],3.759 (1.554)
same,FEV1 (% predicted) Mean % Change from Baseline (SD),[8],0.6 (6.3) %
same,FEV1 (% predicted) Mean (SD),[8],94.3 (16.4) % predicted
same,FEV1 (L) Mean % Change from Baseline (SD),[8],0.344 (6.156) %
same,FEV1 (L) Mean (SD),[8],3.926 (1.012) L
same,FVC Mean % Change from Baseline (SD),[8],−1.792 (6.201) %
same,FVC Mean (SD),[8],5.020 (1.300)
same,FEF25%-75% Mean % Change from Baseline (SD),[9],9.498 (11.643) %
same,FEF25%-75% Mean (SD),[9],3.830 (1.595)
same,FEV1 (% predicted) Mean % Change from Baseline (SD),[9],2.6 (4.5) %
same,FEV1 (% predicted) Mean (SD),[9],96.3 (15.9) % predicted
same,FEV1 (L) Mean % Change from Baseline (SD),[9],2.406 (4.249) %
same,FEV1 (L) Mean (SD),[9],4.005 (0.983) L
same,FVC Mean % Change from Baseline (SD),[9],−0.051 (2.348) %
same,FVC Mean (SD),[9],5.105 (1.262)
same,subjects with treatment-emergent AEs,third injection 1.5 μg/kg,75%
same,FEF25%-75% Mean % Change from Baseline (SD),[10],2.411 (12.016) %
same,FEF25%-75% Mean (SD),[10],2.880 (0.584)
same,FEV1 (% predicted) Mean % Change from Baseline (SD),[10],0.4 (2.6) %
same,FEV1 (% predicted) Mean (SD),[10],91.6 (8.1) % predicted
same,FEV1 (L) Mean % Change from Baseline (SD),[10],0.336 (2.702) %
same,FEV1 (L) Mean (SD),[10],3.344 (0.610) L
same,FVC Mean % Change from Baseline (SD),[10],0.031 (2.871) %
same,FVC Mean (SD),[10],4.334 (0.845)
same,FEF25%-75% Mean % Change from Baseline (SD),[11],2.110 (5.540) %
same,FEF25%-75% Mean (SD),[11],2.890 (0.645)
same,FEV1 (% predicted) Mean % Change from Baseline (SD),[11],−0.5 (2.0) %
same,FEV1 (% predicted) Mean (SD),[11],90.8 (7.8) % predicted
same,FEV1 (L) Mean % Change from Baseline (SD),[11],−0.380 (2.306) %
same,FEV1 (L) Mean (SD),[11],3.330 (0.666) L
same,FVC Mean % Change from Baseline (SD),[11],−1.335 (2.366) %
same,FVC Mean (SD),[11],4.281 (0.882)
same,FEF25%-75% Mean % Change from Baseline (SD),[12],−1.475 (6.450) %
same,FEF25%-75% Mean (SD),[12],2.803 (0.705)
same,FEV1 (% predicted) Mean % Change from Baseline (SD),[12],−0.4 (2.3) %
same,FEV1 (% predicted) Mean (SD),[12],90.9 (7.9) % predicted
same,FEV1 (L) Mean % Change from Baseline (SD),[12],−0.439 (2.820) %
same,FEV1 (L) Mean (SD),[12],3.331 (0.682) L
same,FVC Mean % Change from Baseline (SD),[12],−0.179 (2.938) %
same,FVC Mean (SD),[12],4.326 (0.872)
same,FEF25%-75% Mean % Change from Baseline (SD),[13],0.469 (2.514) %
same,FEF25%-75% Mean (SD),[13],2.851 (0.654)
same,FEV1 (% predicted) Mean % Change from Baseline (SD),[13],0.6 (1.3) %
same,FEV1 (% predicted) Mean (SD),[13],91.9 (7.4) % predicted
same,FEV1 (L) Mean % Change from Baseline (SD),[13],0.617 (1.762) %
same,FEV1 (L) Mean (SD),[13],3.365 (0.680) L
same,FVC Mean % Change from Baseline (SD),[13],0.537 (2.460) %
same,FVC Mean (SD),[13],4.358 (0.878)
same,"changes from baseline in mean FEV1, FEV1 (% predicted), FEF25%-75%, FVC","third injection (0.5, 1.0, 1.5 μg/kg)",no clinically significant changes from baseline
same,"deaths, serious AEs, premature discontinuations due to AEs",whole study,"no deaths, serious AEs, or premature discontinuations due to AEs"
same,"laboratory evaluations, ECG, pulse oximetry",whole study,No clinically meaningful results
